Experimental data as given in patent publication US20240327356A1, “PYRIMIDINE BASED RAS MODULATORS AND USES THEREOF” (QUANTA THERAPEUTICS, INC., priority 2021, published 2024).

Key:
[1] = target: KRAS^G12D-FMe.RAF1^RBDCRD complex (Homo sapiens, UniProt P01116, G12D); experiment: SHG assay: binding to bilayer-tethered KRAS G12D/RAF1 complex; conditions: GppNHp-loaded complex on PS bilayer; compound 0.027-40 μM, monitored over 60 min
Outline: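 GppNHp-loaded KRAS G12D-FMe and RAF1 RBDCRD (equimolar) were tethered overnight at 4° C on a PS bilayer. Compounds at 0.027-40 μM in pH 7.4 Hepes buffer with 5 μM GppNHp were added. Second harmonic signal (800 nm excitation, 400 nm emission) was tracked every 5 min for 60 min.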

[2] = tested on: pERK (ERK phospho-T202/Y204) in SW-480 cells; experiment: pERK inhibition in SW-480 cell line (HTRF); type: cell-based; conditions: Homo sapiens, SW480, 1 hour incubation with compound
Description: SW-480 cells were cultured in Leibovitz's L15 (Gibco Cat. No. 11415064), supplemented with 10% fetal bovine serum (Gibco, Cat. No. 1993708), and 1% penicillin and streptomycin. Cells were grown at 37° C., under atmospheric conditions without additional CO2. Cells were seeded into a 96-well tissue-culture treated plate (Greiner, Cat. No. 655180) at a density of 30,000 cell per well, and allowed to adhere for 16 hours before the media was removed, and cells were treated with compounds diluted into culture media at the indicated concentrations. After 1 hour of incubation in the presence of compound, cells were harvested to measure pERK levels using the lysis buffer supplied with the Homogenous Time Resolved Fluorescence pERK kit (HTRF, Cisbio Advance ERK phospho-T202/Y204, Cat. No. 64AERPEG). Lysates were transferred to a 384-well low-volume white plate (PerkinElmer, Cat. No. 6008280) and then treated with the detection reagents supplied by the HTRF kit, according to the “2-plate” protocol supplied by the manufacturer, and incubated for 4-hours at ambient temperature in darkness. Assay plates were read at two fluorescent wavelengths (665 nm and 620 nm) using an Envision plate reader (Perkin Elmer) and data was processed and fitted to a 4-parameter logistic model using Graphpad Prism 8.0 to calculate IC50 values.

[3] = tested on: Phospho-ERK (Thr202/Tyr204) in MiaPaCa-2 cells; experiment: pERK inhibition in MiaPaca-2 cell line (HTRF); type: cell-based; conditions: Homo sapiens, MIA PaCa-2, 1 hour incubation with compound
Outline: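 Following 16 h attachment, MiaPaCa-2 cells were given compounds for 1 h (final 0.5% DMSO), then lysed. Phospho-ERK (Thr202/Tyr204) detected by HTRF (665/620 nm) after 4 h detection at ambient temperature; IC50 from 4-parameter logistic fit.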

| SMILES | EC50 [1] [nM] | IC50 [2] [nM] | IC50 [3] [nM] |
| --- | --- | --- | --- |
| Cc1ccc(-c2ncc(CNC(=O)C3(C#N)CC3)c(N3CCC(N)CC3)n2)cc1Cl [Compound 67] | 1000 to 10000 | 1000 to 10000 | 100 to 1000 |
| Cc1ccc(-c2ncc(CNC(=O)C3(F)CC3)c(N3C[C@@H]4[C@@H](N)[C@@H]4C3)n2)cc1Cl [Compound 84] | 1000 to 10000 | 1000 to 10000 | 1000 to 10000 |
| N#CC1(C(=O)NCc2cnc(-c3ccc4c(c3)CCC4)nc2N2CCC(CN)C2)CC1 (stereo not drawn) [Compound 104] | 10000 to 50000 | 1000 to 10000 | 100 to 1000 |
| Cc1ccc(-c2ncc(CNC(=O)C3(C#N)CC3)c(N3CC[C@@H](CN)C3)n2)cc1Cl [Compound 62] | 1000 to 10000 | 1000 to 10000 | 100 to 1000 |
| N#CC1(C(=O)NCc2cnc(-c3ccc(Cl)c(C(F)(F)F)c3)nc2N2CCC(CN)C2)CC1 (stereo not drawn) [Compound 5, N-[[4-[3-(aminomethyl)pyrrolidin-1-yl]-2-[4-chloro-3-(trifluoromethyl)phenyl]pyrimidin-5-yl]methyl]-1-cyano-cyclopropanecarboxamide] | 1000 to 10000 | 1000 to 10000 | 1000 to 10000 |
| Cc1ccc(-c2ncc(CNC(=O)C3(CO)CC3)c(N3CCC(CN)C3)n2)cc1Cl (stereo not drawn) [Compound 105] | 10000 to 50000 | 1000 to 10000 | 100 to 1000 |
| Cc1ccc(-c2ncc(CNC(=O)C3(F)CC3)c(N3CCNCC3)n2)cc1Cl [Compound 91] | 1000 to 10000 | 1000 to 10000 | 1000 to 10000 |
| Cc1ccc(-c2ncc(CNC(=O)C3(C#N)CC3)c(N3CC[C@H](CN)C3)n2)cc1Cl [Compound 73] | 1000 to 10000 | 100 to 1000 | 100 to 1000 |
| Cc1ccc(-c2ncc(CNC(=O)C3(C#N)CC3)c(N3CCC(CN)C3)n2)cc1Cl (stereo not drawn) [Compound 41] | 1000 to 10000 | 1000 to 10000 | 100 to 1000 |

The remaining lines, values ahead:

| EC50 [1] [nM] | IC50 [2] [nM] | IC50 [3] [nM] | SMILES |
| --- | --- | --- | --- |
| 1000 to 10000 | 1000 to 10000 | 1000 to 10000 | NCC1CCN(c2nc(-c3ccc(C(F)(F)F)c(Cl)c3)ncc2N2CCCC2=O)C1 (stereo not drawn) [Compound 90, 1-[4-[3-(aminomethyl)pyrrolidin-1-yl]-2-[3-chloro-4-(trifluoromethyl)phenyl]pyrimidin-5-yl]pyrrolidin-2-one] |
| 10000 to 50000 | 1000 to 10000 | 1000 to 10000 | N#CC1(C(=O)NCc2cnc(-c3ccc(Cl)c(C(F)F)c3)nc2N2CCC(CN)C2)CC1 (stereo not drawn) [Compound 57] |
| 10000 to 50000 | 1000 to 10000 | 1000 to 10000 | Cc1cc(-c2ncc(CNC(=O)C3(C#N)CC3)c(N3CCC(CN)C3)n2)ccc1Cl (stereo not drawn) [Compound 52] |
| 1000 to 10000 | 1000 to 10000 | 1000 to 10000 | Cc1ccc(-c2ncc(CNC(=O)C3(C#N)CCC3)c(N3CCC(CN)C3)n2)cc1Cl (stereo not drawn) [Compound 87] |
| 1000 to 10000 | 1000 to 10000 | 1000 to 10000 | Cc1ccc(-c2ncc(NS(=O)(=O)c3ccccc3)c(N3CCC(CN)C3)n2)cc1Cl (stereo not drawn) [Compound 112] |
| 10000 to 50000 | 10000 to 50000 | 1000 to 10000 | Cc1ccc(-c2ncc(CNC(=O)C3(F)CC3)c(N3CCN(C)CC3)n2)cc1Cl [Compound 83] |
